Data published in patent US10731159B2, “Cationic lipid” (DAIICHI SANKYO COMPANY, LIMITED, priority 2013, dated 2020).

Experiments:
[1] = Rate of encapsulation of polynucleotide/mRNA (Quant-iT RiboGreen, with and without Triton X-100); format: physicochemical
Procedure: The rate of encapsulation of the double-stranded polynucleotide was measured using Quant-iT RiboGreen RNA Assay kit (Invitrogen Corp.) according to the attached document.
(§1) Specifically, the double-stranded polynucleotide in the nucleic acid lipid particle dispersion was quantified in the presence and absence of a 0.015% Triton X-100 detergent, and the rate of encapsulation was calculated according to the following expression: {[Amount of the double-stranded polynucleotide in the presence of the detergent]−[Amount of the double-stranded polynucleotide in the absence of the detergent]}/[Amount of the double-stranded polynucleotide in the presence of the detergent]}×100(%) (3) Ratio of Double-Stranded Polynucleotide to Lipid
The rate of encapsulation of the mRNA was measured using Quant-iT RiboGreen RNA Assay kit (Invitrogen Corp.) according to the attached document.
as §1, with “mRNA” for “double-stranded polynucleotide”, “mRNA” for “Double-Stranded Polynucleotide”

[2] = Average particle size of nucleic acid lipid particle (NICOMP 380ZLS); format: physicochemical; settings: ± deviation
Procedure: The particle size of the liposome was measured using Zeta Potential/Particle Sizer NICOMP™ 380ZLS (Particle Sizing Systems, LLC). In the tables, the average particle size is indicated by a volume-average particle size, and the numeric value following ±represents a deviation.

[3] = test system: human PLK-1 gene; assay: Test Example 10: PLK-1 expression inhibition in Hep3B tumor of nude mice; format: in vivo; settings: nude mice with subcutaneous Hep3B tumor, i.v. 1 mg/kg and 3 mg/kg, tumor collected the day after administration; particles of Example 57
Procedure: After acclimatization and raising of each nude mouse (CAnN.Cg-Foxn1[nu]/CrlCrlj[Foxn1nu/Foxn1nu]) for 8 days, cultured human Hep3B cells (1×10^7 cells/mouse) were subcutaneously transplanted to the right lateral region of the mouse. 19 days after the tumor transplantation, the mice were grouped with the tumor volume as an index, and, on the next day, the nucleic acid lipid particle-containing dispersion prepared in Example 57 was intravenously administered (administered at doses of 1 mg/kg and 3 mg/kg) to the tail of each mouse. PBS was administered to a control group. On the day after the administration of the nucleic acid lipid particle, a tumor mass was collected from the cancer-bearing mouse, and a nucleic acid was extracted using QIAzol Lysis Reagent (manufactured by Qiagen N.V.) and chloroform. Then, total RNA was purified using QIAGNE RNeasy Plus Mini kit (manufactured by Qiagen N.V.) according to the attached protocol.
16 μL of the purified RNA and 4 μL of SuperScript VILO Master mix (Life Technologies, Inc.) were mixed and used in RT reaction under conditions given below.
RT reaction: 25° C. for 10 min • 42° C. for 60 min • 85° C. for 5 min. […]
The quantitative analysis was conducted by the ΔΔCt method. A value (ΔΔCt) was determined by subtracting ΔCt of the PBS administration group from the difference in Ct value (ΔCt) between human PLK-1 and human GAPDH in the administration group of each nucleic acid lipid particle, and a relative value (RQ) to the PBS administration group, RQmax, and RQmin were calculated according to the following expressions: RQ=2^−ΔΔCt RQmax=2^−95% CI of ΔΔCt (95% CI of ΔΔCt: the maximum value of 95% confidence interval of ΔΔCt) RQmin=2^−95% CI of ΔΔCt (95% CI of ΔΔCt: the minimum value of 95% confidence interval of ΔΔCt)
In the diagram, error bars were calculated according to the following expression: +error bars:RQmax−RQ,−error bars:RQ−RQmin)

[4] = Ratio of polynucleotide/mRNA to lipid (wt/wt); format: physicochemical
Procedure: The nucleic acid lipid particle dispersion was mixed with acetonitrile and chloroform at a ratio of 1:1:1 and centrifuged at 15,000 rpm for 2 minutes. Then, the aqueous layer obtained as an upper layer was recovered, followed by the extraction of the double-stranded polynucleotide. The amount of the double-stranded polynucleotide in the sample was measured by ion-exchange chromatography (system: Agilent 1100 series, column: TSKgel DEAE-2SW (2.6×150 mm) (Tosoh Corp), buffer A: 20% acetonitrile, buffer B: 20% acetonitrile and 1.6 M ammonium formate, gradient (B %): 30-55% (0-20 min), flow rate: 1 mL/min, temperature: 40° C., detection: 260 nm).
The amount of the phospholipid in the nucleic acid lipid particle dispersion was measured using Phospholipid C-Test Wako (Wako Pure Chemical Industries Ltd.) according to the attached document. Specifically, the phospholipid in the sample was quantified in the presence of a 1% Triton X-100 detergent.
(§2) The amounts of cholesterol and LP in the nucleic acid lipid particle dispersion were measured by reverse-phase chromatography (system: Agilent 1100 series, column: Chromolith Performance RP-18 endcapped 100-3 monolithic HPLC-column (Merck), buffer A: 0.01% trifluoroacetic acid, buffer B: 0.01% trifluoroacetic acid and methanol, gradient (B %): 87-92% (0-10 min), flow rate: 2 mL/min, temperature: 50° C., detection: 205 nm).
(§3) The total amount of lipids was calculated from the amount of the phospholipid and the compositional ratio of lipid components constituting the liposome, and the ratio of the polynucleotide to the lipid was calculated from the aforementioned amount of the polynucleotide and the total amount of lipids according to the following expression: [Double-stranded polynucleotide concentration]/[Total lipid concentration] (wt/wt)
as §3, with “phospholipid, the amount of cholesterol, and the amount of LP,” for “phospholipid”
The amount of the double-stranded polynucleotide in a sample from the nucleic acid lipid particle dispersion was measured in the presence of a 5% Triton X-100 detergent by ion-exchange chromatography (system: Agilent 1100 series, column: DNAPac PA200 (4×250 mm) (Thermo Fisher Scientific K.K.), buffer A: 10 mM Tris, 25 mM sodium perchlorate, and 20% ethanol, pH 7.0, buffer B: 10 mM Tris, 250 mM sodium perchlorate, and 20% ethanol, pH 7.0, gradient (B %): 20-70% (0-15 min), flow rate: 0.5 mL/min, temperature: 40° C., detection: 260 nm).
as §2, with “82-92%” for “87-92%”
The total amount of lipids was calculated from the amount of the phospholipid, the amount of cholesterol, and the amount of LP, and the compositional ratio of lipid components constituting the liposome, and the ratio of the mRNA to the lipid was calculated from the “amount of the mRNA in the presence of the detergent” of the preceding paragraph (2) according to the following expression: [mRNA concentration in the presence of the detergent]/[Total lipid concentration] (wt/wt)

[5] = test system: Factor VII protein; assay: Test Example 9: Factor VII (FVII) protein measurement in mouse plasma, 0.1 mg/kg i.v.; format: in vivo; settings: mice, i.v. 0.1 mg/kg; for FVII inhibitory activity (in words): 1 day and 6 days after administration; for Relative amount of FVII, 1 day later: plasma 1 day after administration; for Relative amount of FVII, 1 day later / Relative amount of FVII, 6 days later: PBS = 100%; for Relative amount of FVII, 6 days later: plasma 6 days after administration
Procedure: The Factor VII protein was measured according to a method described in Nature Biotechnology (2010) 28, 172-176. C57BL6/J mice (male, 9 weeks old) were randomly grouped (n=4). The nucleic acid lipid particle dispersion prepared in Example 33 was intravenously injected at a dose of 0.3 mg/kg to the tail of each mouse. One day after the administration, approximately 50 μL of blood was collected from the tail vein, and plasma was obtained. The amount of the Factor VII protein in the obtained plasma was measured using Biophen FVII assay kit (manufactured by Aniara Corp.) according to the attached protocol.
When the amount of FVII of respective plasma samples collected in equal amounts from individuals in a PBS administration group was defined as 100%, the relative ratio (%) of the amount of FVII in a plasma sample of each individual was used as a measurement value (A). An average value (B) was determined from the respective measurement values of the individuals in the PBS administration group. The relative ratio of the measurement value (A) of each individual was determined from the expression: A/B×100(%).
By the same procedures as in Test Example 7, the strength of Factor VII protein expression inhibitory activity was compared among nucleic acid lipid particles each prepared using a novel lipid. The prepared nucleic acid lipid particle dispersion was intravenously injected at a dose of 0.1 mg/kg to the tail of each mouse. One day and 6 days after the administration, approximately 50 μL of blood was collected from the tail vein, and plasma was obtained.

[6] = Example 57: PLK1424-2/A siRNA, DPPC:Chol:LP:PEG-C-DSA=7:33.5:57:2.5, N/P 3
[7] = Example 56: siFVII, DSPC:Chol:LP:PEG-C-DMA=10:48:40:2, N/P 3

Row | Compound | Rate of polynucleotide encapsulation [1, 6] [%] | Average particle size [2, 6] [nm] | PLK-1 expression inhibitory activity in tumor (in words, FIG. 5) [3] | Ratio of polynucleotide to lipid siRNA/lipid [4, 6] [wt/wt] | Rate of polynucleotide encapsulation [1, 7] [%] | FVII inhibitory activity (in words) [5] | Relative amount of FVII, 1 day later [5] [%] | Relative amount of FVII, 6 days later [5] [%] | Average particle size [2, 7] [nm] | Ratio of polynucleotide to lipid siRNA/lipid [4, 7] [wt/wt]
1 | CCCCCCCCCCCCCCCCCC(CCCCCCCCCC)OC(=O)OCCCN(C)C (stereo not drawn) [Example 19, 3-(Dimethylamino)propyloctacosan-11-yl Carbonate] | 97 | 103 ± 16 | strong PLK-1 expression inhibitory activity | 0.095 | – | – | – | – | – | –
2 | CCCCCC[C@H](C/C=C\CCCCCCCC(CCCCCCC/C=C\C[C@@H](CCCCCC)OC(C)=O)OC(=O)OCCCN(C)C)OC(C)=O [Example 23, (7R,9Z,26Z,29R)-18-({[3-(Dimethylamino)propoxy]carbonyl}oxy)pentatriaconta-9,26-diene-7,29-diyl Diacetate] | – | – | – | – | 99 | strong FVII inhibitory activity | 21 | 32 | 219 ± 49 | 0.076
3 | CCCCCCCCCCC(CCCCCCC/C=C\C[C@@H](CCCCCC)OC(C)=O)OC(=O)OCCCN(C)C (stereo partly drawn) [Example 28, (7R,9Z)-18-({[3-(Dimethylamino)propyloxy]carbonyl}oxy)octacos-9-en-7-yl Acetate] | – | – | – | – | 97 | strong FVII inhibitory activity | 45 | 57 | 177 ± 36 | 0.083
4 | CCCCCCCCCCCCCCCCCCCC(CCCCCCCCCC)OC(=O)OCCCN(C)C (stereo not drawn) [Example 45, 3-(Dimethylamino)propyl triacontan-11-yl Carbonate] | 96 | 100 ± 27 | strong PLK-1 expression inhibitory activity | 0.093 | – | – | – | – | – | –
5 | CCCCC/C=C\C/C=C\CCCCCCCCC(COCCCCCCCC/C=C\C[C@@H](CCCCCC)OC(C)=O)OC(=O)OCCCN(C)C (stereo partly drawn) [Example 54, (20,23R)-2-Methyl-9-[(9Z,12Z)-octadeca-9,12-dien-1-yl]-7-oxo-6,8,11-trioxa-2-azanonacos-20-en-23-yl Acetate] | 98 | 127 ± 29 | strong PLK-1 expression inhibitory activity | 0.078 | – | – | – | – | – | –
